Laboratory results as given in patent publication US20220096379A1, “SELF-EMULSIFYING DRUG FORMULATION FOR IMPROVING MEMBRANE PERMEABILITY OF COMPOUND” (Chugai Seiyaku Kabushiki Kaisha, priority 2016, published 2022).
Like-named read-outs stand apart in the source and are kept apart here. Starred links: 1 amine or outer side, 2 acyl side, 3 side chain; linkers in the order of their positions; H or OH if unused. Positions of bridges follow the written chain, without caps; N, C: chain ends. Non-standard residues stand in square brackets, D forms with d. Residues, ends and D or L forms follow the SMILES beside them. *: point of attachment. NMeF = CN[C@@H](Cc1ccccc1)C(=O)O; NMeI = CC[C@H](C)[C@H](NC)C(=O)O; NMeβAla = CN(CCC(=O)[*:2])[*:1]; NMeL = CN[C@@H](CC(C)C)C(=O)O; NMeA = CN[C@@H](C)C(=O)O; Piperidide = C1CCN(*)CC1; Sar = CNCC(=O)O; tBu = CC(C)(C)*

Assays:
[1] = Caco-2 membrane permeability evaluation (improved method, 20-24 h pre-incubation, 96-well); assay type: in vitro ADME; conditions: human; for Papp at 180 min: commercially available middle molecular weight compounds; for Papp A→B at 180 min: cyclic peptides, pre-incubation 20-24 h, apical pH 6.0, basal pH 7.4 4% BSA
Description: After Caco-2 cells were cultured on a 96-well transwell for three weeks, DMEM+FaSSIF (1% DMSO)+the compound was added to the Apical side and DMEM was added to the Basal side, and this was pre-incubated under 5% CO2 at 37° C. and 80 rpm for 20 hours to 24 hours. After pre-incubation, the pre-incubation solutions on the Apical and Basal sides were removed by aspiration and washed, a permeability test was initiated by adding FaSSIF/HBSS buffer (pH 6.0) containing the compound to the Apical side and HBSS buffer (pH 7.4) containing 4% BSA to the Basal side. Each well was shaken under 5% CO2, at 37° C. and 80 rpm. […] The permeability coefficient was calculated from the amount of permeation.
More specifically, after Caco-2 cells were cultured on a 96-well transwell for three weeks, DMEM+FaSSIF (1% DMSO)+the compound was added to the Apical side and DMEM was added to the Basal side, and this was pre-incubated at 5% CO2, 37° C., and 80 rpm for 20 hours to 24 hours. After pre-incubation, the pre-incubation solutions on the Apical side and on the Basal side were removed by aspiration and washed, FaSSIF/HBSS buffer (1% DMSO) (pH 6.0) containing the compound was added to the Apical side, and HBSS buffer (4% BSA) (pH 7.4) was added to the Basal side, and membrane permeability assays were initiated. […] From the amount of permeation, the membrane permeability coefficient (Papp) was calculated.

[2] = Log D (pH 7.4) measurement, n-octanol/buffer; conditions: n-octanol/pH 7.4 buffer
Description: (§1) A two-phase separated solution of n-octanol and a pH 7.4 buffer was prepared, a DMSO solution of the drug was added to the prepared two-phase-separated solution. After shaking (room temperature, 1800 rpm, two hours), the solution was centrifuged (3000 rpm, ten minutes), only the buffer fractions were collected, and drug concentrations in the buffer fractions were measured by LC/MS. Log D (pH 7.4) was calculated from the measured drug concentrations.

physchem = conditions: pH 7.4
Description: as §1

[3] = cited from earlier work
Caco-2 cells = conditions: cited from earlier work; for decrease in the concentration on the Apical side: 120 minutes of incubation

SMILES	Papp at 180 min [1]	logD [2]	other results
C[C@H]1O[C@@H](O[C@H]2[C@@H](O)C[C@H](O[C@H]3[C@@H](O)C[C@H](O[C@H]4CC[C@@]5(C)[C@H](CC[C@@H]6[C@@H]5C[C@@H](O)[C@]5(C)[C@@H](C7=CC(=O)OC7)CC[C@]65O)C4)O[C@@H]3C)O[C@@H]2C)C[C@H](O)[C@@H]1O [Digoxin]	0.264 ×10⁻⁶ cm/s	–	–
CC[C@H]1OC(=O)[C@H](C)[C@@H](O[C@H]2C[C@@](C)(OC)[C@@H](O)[C@H](C)O2)[C@H](C)[C@@H](O[C@@H]2O[C@H](C)C[C@H](N(C)C)[C@H]2O)[C@](C)(O)C[C@@H](C)C(=O)[C@H](C)[C@@H](O)[C@]1(C)O [Erythromycin]	0.382 ×10⁻⁶ cm/s	0.89	–
CC[C@H](C)[C@H]1C(=O)N[C@@H](COC(C)(C)C)C(=O)N[C@H](C(=O)N2CCCCC2)CC(=O)N(C)[C@@H](C)C(=O)N(C)[C@@H](Cc2ccccc2)C(=O)N(C)CC(=O)N(C)[C@@H](CC(C)C)C(=O)N[C@@H]([C@@H](C)O)C(=O)N(C)[C@@H](C)C(=O)N(C)[C@@H](CC(C)C)C(=O)N1C [Compound (2)] ([NMeA][NMeF][Sar][NMeL]T[NMeA][NMeL][NMeI]S(tBu)D-Piperidide; lactam N-10)	–	–	logD at 2 h (physchem): 4.43; intrinsic hepatic clearance CLh int ([3]; human liver microsomes): 48 μL/min/mg protein
CC(C)NCC(O)COc1cccc2ccccc12 (stereo not drawn) [propranolol]	–	–	decrease in the concentration on the Apical side (Caco-2 cells): approximately 40%; added drug distributed in the cells after completion of incubation (Caco-2 cells): approximately 8%
CC(C)C[C@@H]1NC(=O)[C@H](Cc2ccccc2)N(C)C(=O)[C@H](Cc2ccccc2)N(C)C(=O)[C@H](CC(C)C)NC(=O)[C@H](C)N(C)C(=O)[C@H]([C@@H](C)O)NC(=O)[C@H](C)N(C)C(=O)C[C@@H](C(=O)N2CCCCC2)NC(=O)[C@H](CC(C)C)N(C)C1=O [Compound (4)] ([NMeA]T[NMeA]L[NMeF][NMeF]L[NMeL]D-Piperidide; lactam N-9)	–	–	logD at 2 h [2]: 5.17; Papp A→B at 180 min [1]: 4.14 ×10⁻⁶ cm/s; intrinsic hepatic clearance CLh int ([3]; human liver microsomes): 189 μL/min/mg protein
CC[C@H](C)[C@H]1C(=O)N(C)[C@@H](C)C(=O)N(C)[C@@H](Cc2ccccc2)C(=O)N[C@@H]([C@@H](C)O)C(=O)N(C)[C@@H](Cc2ccccc2)C(=O)N(C)[C@@H](CC(C)C)C(=O)N2CCC[C@H]2C(=O)N[C@H](C(=O)N2CCCCC2)CC(=O)N[C@@H](C)C(=O)NCC(=O)N(C)[C@@H](CC(C)C)C(=O)N1C [Compound (1)] (AG[NMeL][NMeI][NMeA][NMeF]T[NMeF][NMeL]PD-Piperidide; lactam N-11)	–	–	Papp A→B at 180 min [1]: 0.262 ×10⁻⁶ cm/s; logD at 2 h (physchem): 5.19; intrinsic hepatic clearance CLh int ([3]; human liver microsomes): 74 μL/min/mg protein
CC[C@H](C)[C@H]1C(=O)N[C@H](C(=O)N2CCCCC2)CC(=O)N[C@H](C(C)C)C(=O)N(C)[C@@H](Cc2ccccc2)C(=O)N(C)[C@@H](CC(C)C)C(=O)N[C@@H]([C@@H](C)O)C(=O)N(C)CC(=O)N(C)[C@@H](CC(C)C)C(=O)N[C@@H](COC(C)(C)C)C(=O)N1C [Compound (5)] ([dV][NMeF][NMeL]T[Sar][NMeL]S(tBu)[NMeI]D-Piperidide; lactam N-9)	–	–	logD at 2 h [2]: 4.31; Papp A→B at 180 min [1]: 1.85 ×10⁻⁶ cm/s; intrinsic hepatic clearance CLh int ([3]; human liver microsomes): 58 μL/min/mg protein
CC[C@H]1OC(=O)[C@H](C)[C@@H](O[C@H]2C[C@@](C)(OC)[C@@H](O)[C@H](C)O2)[C@H](C)[C@@H](O[C@@H]2O[C@H](C)C[C@H](N(C)C)[C@H]2O)[C@](C)(O)C[C@@H](C)CN(C)[C@H](C)[C@@H](O)[C@]1(C)O [Azithromycin]	0.515 ×10⁻⁶ cm/s	0.62	–
CC(C)C[C@H]1C(=O)N(C)[C@@H](CC(C)C)C(=O)N[C@H](C(=O)N2CCCCC2)CC(=O)N(C)CCC(=O)N(C)[C@@H](Cc2ccccc2)C(=O)N[C@@H]([C@@H](C)O)C(=O)N(C)CC(=O)N[C@@H](COC(C)(C)C)C(=O)N1C [Compound (6)] ([NMeβAla][NMeF]T[Sar]S(tBu)[NMeL][NMeL]D-Piperidide; lactam N-8)	–	–	logD at 2 h (physchem): 3.19; intrinsic hepatic clearance CLh int ([3]; human, microsomes): 86 μL/min/mg protein
COCCc1ccc(OCC(O)CNC(C)C)cc1 (stereo not drawn) [metoprolol]	–	–	decrease in the concentration on the Apical side (Caco-2 cells): approximately 20%
CC[C@H](C)[C@H]1C(=O)N[C@H](C(=O)N2CCCCC2)CC(=O)N[C@H](C(C)C)C(=O)N(C)[C@@H](CC(C)C)C(=O)N(C)[C@@H](Cc2ccccc2)C(=O)N(C)[C@@H](C)C(=O)N[C@@H]([C@@H](C)O)C(=O)N(C)CC(=O)N(C)[C@@H](CC(C)C)C(=O)N[C@@H](COC(C)(C)C)C(=O)N1C [Compound (3)] ([dV][NMeL][NMeF][NMeA]T[Sar][NMeL]S(tBu)[NMeI]D-Piperidide; lactam N-10)	–	–	Papp A→B at 180 min [1]: 0.249 ×10⁻⁶ cm/s; logD at 2 h (physchem): 4.18; intrinsic hepatic clearance CLh int ([3]; human liver microsomes): 46 μL/min/mg protein
C[C@@H]1[C@H](O)[C@@H](C)/C=C/C=C/C=C/C=C/C=C/C=C/C=C/[C@H](O[C@@H]2O[C@H](C)[C@@H](O)[C@H](N)[C@@H]2O)C[C@@H]2O[C@](O)(C[C@@H](O)C[C@@H](O)[C@H](O)CC[C@@H](O)C[C@@H](O)CC(=O)O[C@H]1C)C[C@H](O)[C@H]2C(=O)O [AmphotericinB]	0.0736 ×10⁻⁶ cm/s	0.11	–

Continued, in another order:

Papp at 180 min [1]	logD [2]	SMILES	other results
1.84 ×10⁻⁶ cm/s	4.36	CO[C@H]1C[C@@H]2CC[C@@H](C)[C@@](O)(O2)C(=O)C(=O)N2CCCC[C@H]2C(=O)O[C@H]([C@H](C)C[C@@H]2CC[C@@H](O)[C@H](OC)C2)CC(=O)[C@H](C)/C=C(\C)[C@@H](O)[C@@H](OC)C(=O)[C@H](C)C[C@H](C)/C=C/C=C/C=C/1C [Rapamycin]	–
1.74 ×10⁻⁶ cm/s	4.29	CC(C)c1nc(CN(C)C(=O)N[C@H](C(=O)N[C@@H](Cc2ccccc2)C[C@H](O)[C@H](Cc2ccccc2)NC(=O)OCc2cncs2)C(C)C)cs1 [Ritonavir]	–
1.08 ×10⁻⁶ cm/s	3.88	CO[C@H]1/C=C/O[C@@]2(C)Oc3c(C)c(O)c4c(c3C2=O)C2=NC3(CCN(CC(C)C)CC3)NC2=C(NC(=O)/C(C)=C\C=C\[C@H](C)[C@H](O)[C@@H](C)[C@@H](O)[C@@H](C)[C@H](OC(C)=O)[C@@H]1C)C4=O [Rifabutin]	–
2.48 ×10⁻⁶ cm/s	4.19	C=CC[C@@H]1/C=C(\C)C[C@H](C)C[C@H](OC)[C@H]2O[C@@](O)(C(=O)C(=O)N3CCCC[C@H]3C(=O)O[C@H](/C(C)=C/[C@@H]3CC[C@@H](O)[C@H](OC)C3)[C@H](C)[C@@H](O)CC1=O)[C@H](C)C[C@@H]2OC [Tacrolimus]	–
0.138 ×10⁻⁶ cm/s	3.36	CC(=O)O[C@H]1C(=O)[C@@]2(C)[C@H]([C@H](OC(=O)c3ccccc3)[C@]3(O)C[C@H](OC(=O)[C@H](O)[C@@H](NC(=O)c4ccccc4)c4ccccc4)C(C)=C1C3(C)C)[C@]1(OC(C)=O)CO[C@@H]1C[C@@H]2O [Paclitaxel]	–
1.73 ×10⁻⁶ cm/s	1.61	CO[C@H]1/C=C/O[C@@]2(C)Oc3c(C)c(O)c4c(O)c(c(/C=N/N5CCN(C)CC5)c(O)c4c3C2=O)NC(=O)/C(C)=C\C=C\[C@H](C)[C@H](O)[C@@H](C)[C@@H](O)[C@@H](C)[C@H](OC(C)=O)[C@@H]1C [Rifampicin]	–
5.12 ×10⁻⁶ cm/s	2.45	CO[C@H]1/C=C/O[C@@]2(C)Oc3c(C)c(O)c4c(O)c(c(/C=N/N5CCN(C6CCCC6)CC5)c(O)c4c3C2=O)NC(=O)/C(C)=C\C=C\[C@H](C)[C@H](O)[C@@H](C)[C@@H](O)[C@@H](C)[C@H](OC(C)=O)[C@@H]1C [Rifapentine]	–
0.319 ×10⁻⁶ cm/s	2.1	CC[C@H]1OC(=O)[C@H](C)C(=O)[C@H](C)[C@@H](O[C@@H]2O[C@H](C)C[C@H](N(C)C)[C@H]2O)[C@](C)(OC)C[C@@H](C)C(=O)[C@H](C)[C@H]2N(CCCCn3cnc(-c4cccnc4)c3)C(=O)O[C@]12C [Telithromycin]	–
0.108 ×10⁻⁶ cm/s	2.04	CC[C@H]1OC(=O)[C@H](C)[C@@H](O[C@H]2C[C@@](C)(OC)[C@@H](O)[C@H](C)O2)[C@H](C)[C@@H](O[C@@H]2O[C@H](C)C[C@H](N(C)C)[C@H]2O)[C@](C)(O)C[C@@H](C)/C(=N\OCOCCOC)[C@H](C)[C@@H](O)[C@]1(C)O [Roxithromycin]	–
0.0903 ×10⁻⁶ cm/s	2.82	CCC1=C[C@@H]2CN(C1)Cc1c([nH]c3ccccc13)[C@@](C(=O)OC)(c1cc3c(cc1OC)N(C)[C@H]1[C@@](O)(C(=O)OC)[C@H](OC(C)=O)[C@]4(CC)C=CCN5CC[C@]31[C@@H]54)C2 [Vinorelbine]	–
1.06 ×10⁻⁶ cm/s	4.29	CCC(C)n1ncn(-c2ccc(N3CCN(c4ccc(OCC5COC(Cn6cncn6)(c6ccc(Cl)cc6Cl)O5)cc4)CC3)cc2)c1=O (stereo not drawn) [Itraconazole]	–
